Test results as given in patent publication US20090176701A1, “Anti-microbial agents that interact with the complement system” (priority 2005, published 2009).

Key:
Type in all cases: cell-based
[1] = system: E. coli O18:K1:H7; assay: Bacterial killing assay in serum or plasma (complement dependence)
[2] = system: E. coli O18:K1:H7; assay: Bacterial killing assay without blood (growth medium); conditions: Table 4; no blood, peptide 3 μM; growth medium 6.2
Description: Peptides #1, #3 and #4 were tested for their activity without blood on E. coli O18:K1:H7. The peptides were assayed at 3 μM. The same blood and TFPI controls were included as in Experiment I.

[3] = system: E. coli O7:K1(L):NM (ATCC 23503); assay: Bacterial killing assay with normal human serum, additional strain; conditions: Table 3, peptide 3 μM, NHS control 5.3
Description: Peptide #3 was tested for activity at 3 μM on additional strains of E. coli using normal human serum as a control.

[4] = system: E. coli O18:K1:H7; assay: Bacterial killing assay in 10% blood; set-up: CFU / CFU (Range) / CFU 1 hour / CFU 3 hours / CFU 5 hours / CFU 3 hour: scale not given here; conditions: for CFU 1 hour / CFU 3 hours: Table 5, 3000 CFU; for CFU 1 hour: blood 3.4; for CFU 3 hours: blood 4.2; for CFU 5 hours / CFU 3 hour: Table 6; for CFU (Range): Table 9
Description: TFPI was incubated with α-thrombin, plasmin, elastase and cathepsin G in 10% blood and tested for bacterial killing activity against E. coli O18:K1:H7 as follows. Recombinant TFPI at 5 μM (unless indicated otherwise), was treated with plasmin (100 nM, lane 3) and α-thrombin (100 nM, lane 7; 1 μM, lane 8) (A), elastase (100 nM, lanes 3 and 4) (B), and cathepsin G (100 nM, lane 4; 1 μM, lanes 5, 6 and 7) (C) in a total volume of 180 μl. The reaction contained TFPI diluted in RPMI 1640 without phenol red, 25 mM Hepes, pH 7.5 (RPMI), 3000 CFU E. coli O18:K1:H7 in 40 μl PBS, and diluted enzyme in 20 μl RPMI. The volume was adjusted with RPMI. The samples were pre-incubated for 15-30 minutes before the addition of anti-coagulant-free fresh blood to a final volume of 200 μl. Controls were 10% blood in RPMI, TFPI at 1, 2 and 5 μM, and the enzymes alone at the respective concentrations. The samples were incubated for 4 hours at 37° C. with 5% CO2 in a humidified incubator and serial dilutions plated on Tryptase soy agar plates. The number of bacterial colonies was determined after overnight incubation at 37° C. All experimental conditions are run in duplicate. The data represent the average colony number.
The 18 μl aliquots were diluted to 10 μM TFPI with 445 μl RPMI 1640 without phenolred, 25 mM Hepes, pH 7.5 (RPMI) and assayed at a final concentration of 5 μM in 200 μl reactions containing 3000 CFU E. coli in 40 μl PBS, 10% non-coagulated blood, and adjusted to the final volume with RPMI. Negative controls were 10% blood in RPMI, TFPI at 5 μM and cathepsin G at 400 nM. Anti-coagulant free blood was freshly drawn and added to the reaction as the last component. The samples were manipulated as described above.
Peptides were designed to test for bacterial killing activity localized in the C-terminal domain of TFPI. Activity was measured against Gram negative (E coli O18:K1:H7. ATCC 700973) bacteria in the presence of 10% blood as described above. Controls were RPMI with 10% blood and 100 nM Tifacogin. The biological activity was determined from the reduction of bacterial colonies, as above.
The three peptides #1, #2, & #3 were diluted in H2O to 10 fold their final assay concentration and incubated with bacteria for 4 hours, at the final concentrations of 3 μM, 300 nM 100 nM and 10 nM. E. coli was used at 3000 CFU/200 μl. Surviving colony numbers were determined as described in Example 1. […] Full-length TFPI has no activity against Gram negative bacteria in these assays at the concentrations tested.
Time-dependency: Peptides were incubated with 3000 CFU E. coli O18:K1:H7 at the indicated final concentrations in the presence of 10% blood in three parallel 200 μl reactions as described above. RPMI with 10% blood was used as negative control. After incubation for 1, 3, or 5 hours samples were assayed for the effect on bacterial survival by plating serial dilutions onto agar plates. […] The effect of peptides on bacterial survival increases over the time-span studied.
In these experiments, variable concentrations of E. coli O18:K1:H7 (3×10^3, 3×10^4 or 3×10^5 CFU/200 μl) were challenged with either 3 μM or 100 nM peptide #3 in RPMI/10% blood, and incubated for 3 or 5 hours before dilution and plating. Briefly, the bacteria were diluted to the indicated CFU in 40 μl PBS, the reactions assembled at a final volume of 200 μl as above, and incubated at 37° C. Serial dilutions of the reactions were plated and the colony number determined after overnight incubation. […] At 5 hours no effect on the high CFU culture was discernable, indicating a titration of the killing activity and the high CFU culture exceeding the capacity.

## GFIQRISKGGLIKTKRKRKKQRVKIAY (homo sapiens) [Peptide #3, TFPI aas 242-268]
[1]; FIG. 8C, 1 U/ml CVF
  bacterial killing activity in CVF-treated serum: still preserved
[1]; FIG. 8C, serum treated with 10 U/ml of CVF
  bacterial killing activity in CVF-treated serum: lost
[1]; FIG. 8C, untreated serum or serum incubated 30 minutes at room temperature without CVF
  bacterial killing activity in serum: active
[1]; FIG. 8D, peptides serially diluted to 300 nM, and 30 nM in serum
  bacterial killing activity in serum (rank): strongest effect
[1]; FIG. 9, C4-deficient guinea pig serum
  bacterial killing activity in C4-deficient serum: completely devoid of bacterial killing activity
[1]; FIG. 9, serum depleted for C1q, C3, C6, C2, C9, or deficient for C4
  bacterial killing activity in complement-depleted sera: loss
[1]; FIGS. 9 C and D, purified C1 complex (2.34 μg) or factor C4 (6 μg) added back to the respective depleted/deficient serum
  bacterial killing activity after add-back of complement factor: restored
[1]; Table 7, serum at 40 μl, digested rTFPI 5 μM, peptide #3 in parallel, control 4.2
  CFU: 1.2
[1]; Table 8, Serum + 5 mM MgC12, 10 mM EDTA, control 4.4
  CFU: 4.2
[1]; serum containing 10 mM EGTA and 5 mM MgCl2
  bacterial killing activity in chelated serum: no bacterial killing activity
[2]
  CFU (Range): 6.2 (6.1-6.2)
[3]
  CFU: 2.9
[4]; 10% blood, 4 hours, concentrations tested 10 nM to 3 μM, peptide #5 compared to peptide #3
  activity against O18ac:K1:H7 E. coli strain in blood: active
[4]; Table 1, peptide 300 nM, 10% blood, 3000 CFU/200 μl, 4 hours, blood control 5.1
  CFU: 2.2
[4]; Table 2, peptide 10 nM, 10% blood, blood control 3.5
  CFU: 2.6
[4]; Table 2, peptide 100 nM, 10% blood, blood control 3.5
  CFU: 1.2
[4]; 300 nM, 10% blood
  CFU 1 hour: 3.3
  CFU 3 hours: 1.2
[4]; 3 μM, 10% blood
  CFU 1 hour: 3.2
  CFU 3 hours: 0.2
[4]; 3000 bacteria, 100 nM, blood alone 3.4
  CFU 5 hours: 1.2
[4]; 3000 bacteria, 100 nM, blood alone 3.9
  CFU 3 hour: 2.3
[4]; 30,000 bacteria, 100 nM, blood alone 5.1
  CFU 3 hour: 1.5
[4]; 30,000 bacteria, 100 nM, blood alone 6.3
  CFU 5 hours: 4.1
[4]; 30,000 bacteria, 3 μM, blood alone 5.1
  CFU 3 hour: 1.1
[4]; 30,000 bacteria, 3 μM, blood alone 6.3
  CFU 5 hours: 3.6
[4]; 300,000 bacteria, 100 nM, blood alone 7.7
  CFU 3 hour: 7.5
[4]; 300,000 bacteria, 100 nM, blood alone 8.4
  CFU 5 hours: 9.1
[4]; 300,000 bacteria, 3 μM, blood alone 7.7
  CFU 3 hour: 5.8
[4]; 300,000 bacteria, 3 μM, blood alone 8.4
  CFU 5 hours: 9.1
[4]; Table 7, blood at 20 μl, digested rTFPI 5 μM, peptide #3 in parallel, control 4.1
  CFU: 1.5
[4]; peptide 3 μm, Heparin, 3 U/mL
  CFU (Range): 5.5
[4]; peptide 3 μm, LMW heparin, 0.3 U/mL
  CFU (Range): 4.2 (4.1-4.2)
[4]; peptide 3 μm, LMW heparin, 3 U/mL
  CFU (Range): 5.2 (5.2-5.3)
[4]; peptide 3 μm, un-fractionated heparin at 0.3 U/ml, data not shown
  bacterial killing activity with un-fractionated heparin: partial loss of bacterial killing activity
